The text below walks through data of patent publication US9655965B2, “Radiosensitizer compounds for use in combination with radiation” (priority 2013, dated 2017).

One may read the IC50 as the point on the concentration scale where inhibition reaches its midpoint. A word on the LD50: it is the dose expected to kill half of the subjects tested.

“Also recorded” adds a separate entry of the source.

In series [1] the test system is human normal cells (GM05757). Nature of the series: In vitro radiation-induced toxicity in human normal cells, MTT assay 12 days after X-ray. To be noted: GM05757, 12-hr treatment, then 0-10 Gy 225 keV X-ray, MTT at 12 days. It counts as cell-based. The source says: (§1) Dibromo-diamino-benzene (Dibromo-phenylenediamine, Compound B) was obtained from TCI-America. Diiodo-diaminobenzene (Compound C) were synthesized, purified and crystallized in our laboratory, and the structures and purity were examined by NMR and mass spectrometry. MEM and fetal bovine serum (FBS), penicillin G and streptomycin were obtained from Hyclone Laboratories (UT, USA). Stock solution of cisplatin was freshly prepared in ultrapure water or saline, and stock solutions of Compounds A, B, C, D were prepared in pure ethanol, where the final concentration of ethanol was ≦1% when treated to cells.
(§2) A human skin diploid fibroblast (GM05757 cell line) was obtained from the Coriell Cell Repository directly. Fetal bovine serum (FBS) was obtained from Hyclone Laboratories (UT, USA). The GM05757 normal cells were cultivated with MEM (Hyclone) supplemented with 10% FBS, 100 units/mL penicillin G and 100 μg/mL streptomycin (Hyclone). The cells were maintained at 37° C. in a humidified atmosphere containing 5% CO2.
The radiosensitizing effects of RSCs on cell viability were determined by the 3-[4,5-dimethylthiazol-2-yl]-2,5-diphenyl tetrazoliumbromide (MTT) assay. Cells were cultured in 96-well plates (5×10^3 cells/well) for 24 h. The culture medium was replaced by fresh culture medium and incubated for 12 h with varying drug concentrations. The cells were then irradiated by 225 kV X-ray (PRECISION X-RAD IR 225) at a dose rate of 2 Gy/min with various X-ray doses. After irradiation, the cells were incubated for 12 days. The MTT assay of cell viability was then conducted. Briefly, 100 μl new medium without phenol red containing 1.2 mM MTT (sigma) (i.e., adding 10 μl 12 mM MTT stock solution in PBS) were added to each well and incubated for 4 h. […] The surviving fraction was determined by measuring the absorbance at 540 nm (570 nm for SDS solubilization) using a Multiskan Spectrum UV/Vis microplate reader (Thermo Scientific), which is directly proportional to the number of viable cells.
In general terms: Formazan colour is commonly taken as a measure of viable cells.

For series [2], the system named is human normal cells (GM05757). Nature of the series: In vitro toxicity in human normal cells, 72-hr treatment, MTT assay. It counts as cell-based. The conditions noted are these: GM05757, 72-hr treatment, without ionizing radiation; for toxicity toward human normal cells: 0-50 μM cisplatin, 0-200 μM compounds.
From the text: as §1, §2
The radiosensitizing effects of RSCs on cell viability were determined by the 3-[4,5-dimethylthiazol-2-yl]-2,5-diphenyl tetrazoliumbromide (MTT) assay. Cells were cultured in 96-well plates (5×10^3 cells/well) for 24 h. The culture medium was replaced by fresh culture medium and incubated for 72 h with varying drug concentrations. The MTT assay of cell viability was then conducted. Briefly, 100 μl new medium without phenol red containing 1.2 mM MTT (sigma) (i.e., adding 10 μl 12 mM MTT stock solution in PBS) were added to each well and incubated for 4 h. The medium was then removed, and the formazan crystals solubilized by 100 μL/well DMSO (or alternatively by 100 μl/well SDS and incubated for another 4 h). The surviving fraction was determined by measuring the absorbance at 540 nm (570 nm for SDS solubilization) using a Multiskan Spectrum UV/Vis microplate reader (Thermo Scientific), which is directly proportional to the number of viable cells.

Series [3] relates to cisplatin-resistant human ovarian cancer (HTB-161) cells. The experiment in a line: In vitro radiosensitizing effect, MTT assay 6 days after X-ray, HTB-161. It counts as cell-based. The conditions noted are these: MTT at 6 days.
From the text: as §1, with “TCI—America.” for “TCI-America.”, “cells. […]” for “cells.”
The radiosensitizing effects of RSCs on cell viability were determined by the 3-[4,5-dimethylthiazol-2-yl]-2,5-diphenyl tetrazoliumbromide (MTT) assay. […] The surviving fraction was determined by measuring the absorbance at 540 nm (570 nm for SDS solubilization) using a Multiskan Spectrum UV/Vis microplate reader (Thermo Scientific), which is directly proportional to the number of viable cells.

Series [4] relates to human cervical cancer (HeLa) cells. Nature of the series: In vitro radiosensitizing effect, MTT assay 6 days after X-ray, HeLa. It counts as cell-based. To be noted: 12-hr treatment, MTT at 6 days.
From the text: as §1, with “TCI—America.” for “TCI-America.”
(§3) A human skin diploid fibroblast (GM05757 cell line) was obtained from the Coriell Cell Repository directly, while the human cervical cancer cell line (HeLa, ATCC#: CCL-2; or ME-180), human ovarian cancer cell line (NIH:OVCAR-3, ATCC#: HTB-161) and human lung cancer cell line (A549, ATCC#: CCL-185™), together with RPMI 1640, F-12K, McCoy's 5 A and L-15 culture media, were obtained from the American Type Culture Collection (ATCC) directly. Fetal bovine serum (FBS) was obtained from Hyclone Laboratories (UT, USA). The GM05757 normal cells and HeLa cells were cultivated with MEM (Hyclone) supplemented with 10% FBS, 100 units/mL penicillin G and 100 μg/mL streptomycin (Hyclone). The complete growth media for ME-180, NIH:OVCAR-3, A549 and MDA-MB-231 cells were the ATCC-formulated McCoy's 5 A Medium supplemented with 10% FBS, RPMI 1640 medium with 20%, F-12K medium with 10% FBS, and L-15 Medium (Leibovitz) with 10% FBS, respectively. The cells were maintained at 37° C. in a humidified atmosphere containing 5% CO2.
The radiosensitizing effects of RSCs on cell viability were determined by the 3-[4,5-dimethylthiazol-2-yl]-2,5-diphenyl tetrazoliumbromide (MTT) assay. Cells were cultured in 96-well plates (5×10^3 cells/well) for 24 h. […] The surviving fraction was determined by measuring the absorbance at 540 nm (570 nm for SDS solubilization) using a Multiskan Spectrum UV/Vis microplate reader (Thermo Scientific), which is directly proportional to the number of viable cells.

In series [5] the test system is various human cancer cells. Nature of the series: In vitro radiosensitizing effects in various human cancer cells (FIG. 14-21). It counts as cell-based. To be noted: 12 hr treatment, then various doses of 225 keV X-ray.
From the text: as §1, with “TCI—America.” for “TCI-America.”
as §3
(§4) The radiosensitizing effects of RSCs on cell viability were determined by the 3-[4,5-dimethylthiazol-2-yl]-2,5-diphenyl tetrazoliumbromide (MTT) assay. Cells were cultured in 96-well plates (5×10^3 cells/well) for 24 h. The culture medium was replaced by fresh culture medium and incubated for 12 h with varying drug concentrations. The cells were then irradiated by 225 kV X-ray (PRECISION X-RAD IR 225) at a dose rate of 2 Gy/min with various X-ray doses. After irradiation, the cells were incubated for 6 days. The MTT assay of cell viability was then conducted. Briefly, 100 μl new medium without phenol red containing 1.2 mM MTT (sigma) (i.e., adding 10 μl 12 mM MTT stock solution in PBS) were added to each well and incubated for 4 h. The medium was then removed, and the formazan crystals solubilized by 100 μL/well DMSO (or alternatively by 100 μl/well SDS and incubated for another 4 h). The surviving fraction was determined by measuring the absorbance at 540 nm (570 nm for SDS solubilization) using a Multiskan Spectrum UV/Vis microplate reader (Thermo Scientific), which is directly proportional to the number of viable cells.

For series [6] the following is noted: [Lu, 2010]; cited from earlier work.
Series [7] has as its system human cervical cancer (ME-180) cells. The experiment in a line: In vitro radiosensitizing effect, MTT assay 6 days after X-ray, ME-180. It counts as cell-based.
From the text: as §1, with “TCI—America.” for “TCI-America.”
as §3, §4

The test system of the next series is mice. The conditions noted are these: literature; cited from earlier work.

On to `Nc1cc(Cl)c(Cl)cc1N` [Compound A, 4,5-dichloro-1,2-phenylenediamine], for which the “radiation toxicity in human normal cells” value in series [1] is recorded as “no radiation toxicity”. In addition, the “toxicity toward human normal cells” value in series [2] was “essentially no toxicity; also recorded: little toxicity up to 200 μM”. Further, the “enhancement of radiosensitivity of cisplatin-resistant cancer cells to X-ray” value in series [3] (HTB-161, 12-hr treatment, 0-10 Gy 225 keV X-ray) is “significant enhancement in the radiosensitivity”. Moreover, the “enhancement of radiosensitivity of cancer cells to X-ray” value (from here on “enhancement … of cancer cells to X-ray”) in series [4] (0-10 Gy 225 keV X-ray) is reported as “significant enhancement in the radiosensitivity”. The “killing of cancer cells in combination with radiation” value (shortened to “killing … with radiation”) in series [5] was “enhanced the killing of cancer cells in a radiation dose dependent manner and in synergy with radiation; also recorded: enhances the effectiveness of ionizing radiation to kill tumor cells”.
For `Nc1cc(I)c(I)cc1N` [Compound C, 4,5-diiodo-1,2-phenylenediamine], the “toxicity toward human normal cells” value in series [2] was “essentially no toxicity; also recorded: little toxicity up to 200 μM”. In addition, in series [4] (0 and 20 Gy 225 keV X-ray), the “enhancement … of cancer cells to X-ray” value is recorded as “significant enhancement in the radiosensitivity”. For the same compound, the “killing … with radiation” value in series [5] was “enhanced the killing of cancer cells in a radiation dose dependent manner and in synergy with radiation; also recorded: enhances the effectiveness of ionizing radiation to kill tumor cells”.
Take `O=c1[nH]c(=O)n([C@H]2C[C@H](O)[C@@H](CO)O2)cc1I` [IdU, iododeoxyuridine]: the “DET reaction with epre− among halopyrimidines” value in series [6] is given as “strongest DET reaction among the halopyrimidines”.
For the compound “bromo-(1,2-)diamino-benzene [Compound D]”, the “enhancement of radiosensitivity of cisplatin-resistant cancer cells to X-ray” value in series [3] (HTB-161, 0-7.5 Gy 225 keV X-ray) is given as “significant enhancement in the radiosensitivity”. Moreover, the “enhancement … of cancer cells to X-ray” value in series [4] (0-10 Gy 225 keV X-ray) is recorded as “significant enhancement in the radiosensitivity”; in series [7] (ME-180, 12-hr treatment, 0-10 Gy 225 keV X-ray, MTT at 6 days), “significant enhancement in the radiosensitivity”. Also, the “killing … with radiation” value in series [5] was “enhanced the killing of cancer cells in a radiation dose dependent manner and in synergy with radiation; also recorded: enhances the effectiveness of ionizing radiation to kill tumor cells”. Besides, the “killing of cancer cells” value in series [7] (ME-180, 50 Gy x-ray with about 100 μM compound, about 20% survived without any RSC) is “early all cancer cells were killed”.
As to “cis-Pt(NH3)2Cl2 [cisplatin, reference compound]”, in series [1], the “radiation toxicity in human normal cells” value was “essentially no radiation toxicity”. Also, in series [2], the “toxicity toward human normal cells” value was “highly toxic; also recorded: severe toxicity even at low concentrations of ≦30 μM”. Also, the IC50 in series [2] (read-out: IC50 (cell survival rate 50% with respect to untreated cells)) is approximately 10 µM. The LD50 with mice is 13.5 mg/kg.
